We go through 22 compounds from PubChem BioAssay (NCI).

SMILES strings stand for the structures. Values joined by “and” are separate entries in the source; they are usually repeats but may differ in a detail not shown here. Equal entries are not always repeated.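 Exposure lasted 48 hours, with cells grown in 96-well plates and compounds tested at five concentrations. GI50 is the concentration that inhibits growth by half. TGI denotes the concentration required for complete inhibition of growth.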 Where a SMILES comes first, the peptide text is derived from it. Bridges are numbered along the chain shown (N, C = ends). [ ]: non-standard residue; d: D form. The star is where a group is joined. ξ: configuration not given here. X26 = O=C(/C=C/C=C/C=C/C=C/C=C/C(=O)*)NC1=C(O)CCC1=O; NMeA = CN[C@@H](C)C(=O)O; ξF = NC(Cc1ccccc1)C(=O)O; ξA = CC(N)C(=O)O A value given as a limit tells only on which side of the number the result lay.

Test systems include NCI/ADR-RES ovarian; OVCAR-5 ovarian; OVCAR-8 ovarian; CCRF-CEM leukemia; ACHN renal; EKVX NSCLC; MDA-N; NCI-H23 lung; HL-60(TB) leukemia; SR leukemia.
Common to all, as to assay: NCI tumour cell line growth inhibition, 48 h

For `Nc1ccc(-c2nc3ccccc3s2)cc1C(F)(F)F`, the TGI in the experiment on NCI/ADR-RES ovarian came to 35.2 µM; in the experiment with OVCAR-5 ovarian, 32.2 µM; in the experiment with OVCAR-8 ovarian it was 43.1 µM; in the experiment on CCRF-CEM leukemia, 95 µM; with ACHN renal it was 28.5 µM; with EKVX NSCLC, 23.9 µM. Moreover, the values for the TGI in the experiment on MDA-N, in the experiment with NCI-H23 lung and in the experiment on HL-60(TB) leukemia were 26.4 µM, 28 µM and 36.9 µM, respectively. Also, the GI50 with OVCAR-5 ovarian was 17.5 µM.

Turning to `N#CC(N=Nc1ccc(Cl)cc1)c1nc2ccccc2o1` (configuration not stated), the TGI was more than 100 µM in the experiment on NCI/ADR-RES ovarian; more than 100 µM in the experiment on OVCAR-5 ovarian; more than 100 µM in the experiment on OVCAR-8 ovarian; 45.6 µM with CCRF-CEM leukemia; more than 100 µM in the experiment with ACHN renal; more than 100 µM in the experiment with EKVX NSCLC. Further, the TGI is more than 100 µM in the experiment with SR leukemia, more than 100 µM with MDA-N, 98.2 µM with NCI-H23 lung and more than 100 µM in the experiment on HL-60(TB) leukemia.

Regarding `CCOC(=O)C1(C(=O)OCC)COS(=O)OC1`, the TGI in the experiment on NCI/ADR-RES ovarian, with OVCAR-8 ovarian, in the experiment with CCRF-CEM leukemia, in the experiment with ACHN renal, with SR leukemia and with MDA-N was more than 100 µM in each case. Besides, in the experiment with NCI-H23 lung, the TGI is more than 100 µM.

`CC1=C2C(=C[C@H]3[C@]4(C)CCCC(C)(C)[C@H]4CC[C@]34O[C@H]24)OC1=O`: the TGI in the experiment on NCI/ADR-RES ovarian, in the experiment on OVCAR-5 ovarian, with ACHN renal, in the experiment with EKVX NSCLC, in the experiment on MDA-N and in the experiment with NCI-H23 lung was more than 100 µM each time.

For `NC(CC1=CS(=O)(=O)c2ccc(Cl)cc21)C(=O)O` (configuration not stated), the TGI in the experiment with NCI/ADR-RES ovarian, with OVCAR-5 ovarian, in the experiment with OVCAR-8 ovarian, with ACHN renal, with EKVX NSCLC and with SR leukemia was more than 100 µM throughout. For the same compound, the TGI in the experiment with MDA-N and with NCI-H23 lung was more than 100 µM each time.

`CCCCn1cnc2c(c(CC#N)nn2-c2ccccc2)c1=N`: the TGI with NCI/ADR-RES ovarian, with OVCAR-5 ovarian, in the experiment with OVCAR-8 ovarian, with CCRF-CEM leukemia, with ACHN renal and in the experiment with EKVX NSCLC was more than 100 µM each time. Further, the TGI in the experiment with MDA-N, in the experiment on NCI-H23 lung and in the experiment on HL-60(TB) leukemia was more than 100 µM in each case.

Regarding `C[C@]12CC[C@@H]3c4ccc(O)cc4CC[C@H]3[C@@H]1C/C(=C\c1ccncc1)[C@@H]2O`, the TGI with NCI/ADR-RES ovarian was 33.5 µM; with OVCAR-5 ovarian, more than 100 µM; with OVCAR-8 ovarian, 31.7 µM; in the experiment with CCRF-CEM leukemia it was more than 100 µM; in the experiment with ACHN renal, 28.3 µM; in the experiment on EKVX NSCLC, more than 100 µM. For the same compound, the results for the TGI with MDA-N, in the experiment on NCI-H23 lung and in the experiment with HL-60(TB) leukemia were more than 100 µM, 22.5 µM and 44.9 µM, respectively.

Turning to `CC1CN=C(N(C(=O)Nc2ccc(F)c(Cl)c2)c2ccccc2)S1` (configuration not stated), the TGI was 43 µM in the experiment with NCI/ADR-RES ovarian; 76.3 µM in the experiment on OVCAR-5 ovarian; 65.7 µM with OVCAR-8 ovarian; more than 100 µM with CCRF-CEM leukemia; 87.9 µM with ACHN renal; 62.4 µM with EKVX NSCLC. The TGI in the experiment with MDA-N is 34.7 µM; in the experiment with NCI-H23 lung it was 52 µM.

Consider `Cc1cc2c([N+](=O)[O-])cc3c(c2o1)C(=O)C=CC3=O`, for which the TGI in the experiment with NCI/ADR-RES ovarian is 65.1 µM; with OVCAR-5 ovarian, 35.1 µM; in the experiment with OVCAR-8 ovarian, more than 55.7 µM; with ACHN renal, 3.77 µM; in the experiment on EKVX NSCLC, 11.5 µM; in the experiment with SR leukemia it was more than 76.4 µM. Besides, the TGI with MDA-N turned out to be 28 µM; in the experiment on NCI-H23 lung, 34.9 µM.

Take `Cc1ccc([N+](=O)[O-])cc1N=NC(=O)NNc1cc([N+](=O)[O-])ccc1C`: the TGI with NCI/ADR-RES ovarian was more than 100 µM; with OVCAR-5 ovarian it was more than 100 µM; with OVCAR-8 ovarian, 70 µM; with CCRF-CEM leukemia, 40.2 µM; in the experiment with SR leukemia, more than 100 µM; with MDA-N, 82.8 µM. For the same compound, the TGI in the experiment with NCI-H23 lung and in the experiment on HL-60(TB) leukemia was more than 100 µM each time.

Consider `O=C(O)C(SC1=NNC2(C(=O)N1)c1ccccc1-c1ccccc12)SC1=NNC2(C(=O)N1)c1ccccc1-c1ccccc12`, for which the TGI in the experiment with NCI/ADR-RES ovarian, in the experiment on OVCAR-5 ovarian, with OVCAR-8 ovarian, with CCRF-CEM leukemia, in the experiment with ACHN renal and in the experiment on EKVX NSCLC was more than 10 µM each time. The TGI with MDA-N, with NCI-H23 lung and in the experiment with HL-60(TB) leukemia was more than 10 µM each time.

Regarding `CSc1c(C#N)c(N)n(-c2ccc(C)cc2)c(=O)c1C#N`, the TGI with NCI/ADR-RES ovarian, in the experiment with OVCAR-5 ovarian, with OVCAR-8 ovarian, in the experiment with CCRF-CEM leukemia, in the experiment on EKVX NSCLC and with SR leukemia was more than 100 µM each time. For the same compound, the TGI in the experiment with MDA-N, in the experiment on NCI-H23 lung and in the experiment on HL-60(TB) leukemia was more than 100 µM each time.

Take `C(=Nc1ccc(-c2nc3ccccc3o2)cc1)c1ccco1`: the TGI with NCI/ADR-RES ovarian, with OVCAR-5 ovarian, with OVCAR-8 ovarian, in the experiment with ACHN renal, in the experiment with EKVX NSCLC and in the experiment on SR leukemia was more than 100 µM in each case. The TGI in the experiment with MDA-N and with NCI-H23 lung was more than 100 µM in each case.

Take `Cc1cc(-c2nc3ccccc3s2)ccc1NC(=O)[C@@H](N)CCCCN`: the TGI with NCI/ADR-RES ovarian was 36.5 µM; with OVCAR-5 ovarian it was 25.7 µM; with OVCAR-8 ovarian, 17.1 µM; in the experiment on CCRF-CEM leukemia it was 22.5 µM; in the experiment with ACHN renal, 30.8 µM; with EKVX NSCLC, 25.1 µM. Further, the TGI with SR leukemia is more than 54.7 µM; with MDA-N, 9.75 µM; in the experiment on NCI-H23 lung it was 17.5 µM.

Consider `Nc1nc(Cl)cc(NCC2(CO)CCC(CCc3ccccc3)C2)n1` (configuration not stated), for which the TGI in the experiment with NCI/ADR-RES ovarian was determined as 51.2 µM; in the experiment on OVCAR-5 ovarian, 33.1 µM; in the experiment on OVCAR-8 ovarian, 44 µM; in the experiment with CCRF-CEM leukemia, 40.1 µM; with ACHN renal it was 29.9 µM; in the experiment on EKVX NSCLC, 25.9 µM. Further, the TGI in the experiment on MDA-N is 28.1 µM; in the experiment with NCI-H23 lung, 25.1 µM; in the experiment with HL-60(TB) leukemia, 33.1 µM.

Turning to `Oc1[nH]c2ccc(Br)cc2c1N=NC(=S)Nc1ccc(F)cc1`, the TGI in the experiment on NCI/ADR-RES ovarian was 6.63 µM; in the experiment with OVCAR-5 ovarian it was more than 100 µM; in the experiment with OVCAR-8 ovarian it was 19.9 µM; in the experiment with ACHN renal, 18 µM; in the experiment with SR leukemia, 12.2 µM; in the experiment with MDA-N, 14.4 µM. For the same compound, the TGI in the experiment with NCI-H23 lung worked out at 6.96 µM; with HL-60(TB) leukemia, 6.84 µM.

Consider `CNc1ncnc2c1cnn2COCC(O)CO` (configuration not stated), for which the TGI in the experiment on NCI/ADR-RES ovarian, in the experiment with OVCAR-5 ovarian, in the experiment on OVCAR-8 ovarian, with CCRF-CEM leukemia, in the experiment with ACHN renal and in the experiment on EKVX NSCLC was more than 100 µM in each case. Moreover, the TGI in the experiment on SR leukemia, in the experiment on MDA-N and with NCI-H23 lung was more than 100 µM throughout.

As for `O=C(Oc1cc(=O)c(OC(=O)c2ccccc2)co1)c1ccccc1`, the TGI with NCI/ADR-RES ovarian, in the experiment with OVCAR-5 ovarian, with OVCAR-8 ovarian, in the experiment on ACHN renal, in the experiment on SR leukemia and with MDA-N was more than 100 µM throughout. In addition, the TGI in the experiment with NCI-H23 lung and in the experiment with HL-60(TB) leukemia was more than 100 µM each time.

For the compound `CC(=O)O[C@H]1C(=O)[C@@]2(C)[C@H]([C@H](OC(=O)c3ccc(F)cc3)[C@]3(O)C[C@H](OC(=O)[C@H](O)[C@@H](NC(=O)c4ccccc4)c4ccccc4)C(C)=C1C3(C)C)[C@]1(OC(C)=O)CO[C@@H]1C[C@@H]2O`, the TGI is more than 25 µM with NCI/ADR-RES ovarian; more than 11.5 µM in the experiment on OVCAR-5 ovarian; more than 25 µM with ACHN renal; more than 25 µM in the experiment with EKVX NSCLC; 0.00496 µM in the experiment with MDA-N; more than 25 µM in the experiment with NCI-H23 lung. In the experiment on HL-60(TB) leukemia, the TGI was 0.0149 µM.

In the case of `CC1NC(=O)[C@H](C)N(C)C(=O)[C@@H]2CCCN2C(=O)[C@@H](NC(=O)C(Cc2ccccc2)NC(=O)/C=C/C=C/C=C/C=C/C=C/C(=O)NC2=C(O)CCC2=O)COC(=O)[C@@H]2CCCN2C1=O` (some centres not stated) (X26-[ξF]SP[NMeA][ξA]P; ester 2-C), the TGI in the experiment with NCI/ADR-RES ovarian, in the experiment on OVCAR-5 ovarian, with CCRF-CEM leukemia, in the experiment on ACHN renal, with EKVX NSCLC and in the experiment with SR leukemia was more than 100 µM in each case. Moreover, the TGI in the experiment on MDA-N, in the experiment on NCI-H23 lung and in the experiment with HL-60(TB) leukemia was more than 100 µM in each case.

For `Clc1ccc(CSCCc2ccncc2)cc1Cl`, the TGI came out at 50.5 µM in the experiment with NCI/ADR-RES ovarian; 66.8 µM with OVCAR-5 ovarian; 46 µM in the experiment on OVCAR-8 ovarian; 44.7 µM with CCRF-CEM leukemia; 66 µM with ACHN renal; 57 µM in the experiment with EKVX NSCLC. The values for the TGI in the experiment with MDA-N, with NCI-H23 lung and with HL-60(TB) leukemia were 46.5 µM, 51.1 µM and 40 µM, respectively.

On to `COc1nc2ncc([C@@H](OC(C)=O)[C@@H](COC(C)=O)OC(C)=O)nc2c(=O)[nH]1`, for which the TGI in the experiment on NCI/ADR-RES ovarian, with OVCAR-5 ovarian, with OVCAR-8 ovarian, with CCRF-CEM leukemia, in the experiment with ACHN renal and with EKVX NSCLC was more than 100 µM each time. The TGI in the experiment with SR leukemia, with MDA-N and in the experiment with HL-60(TB) leukemia was more than 100 µM each time. In the experiment on SR leukemia, the GI50 is > 100 µM and 39.4 µM.
